Results on nine compounds are retold here after patent publication US5753648A, “Tricyclic benzazepine vasopressin antagonists” (American Cyanamid Company, priority 1996, dated 1998).

The term inhibition denotes the share of the control response that was lost under treatment. Low readings indicate a response near the control, high ones a response far below the control.

Read-outs that look alike come from different tables or passages of the source.

The target of test [1] is T1, Rat Kidney Medullary V2 Receptors (Rattus norvegicus, UniProt Q00788).
T1 construct: Medullary tissues from rat kidneys are dissected out; from tissue; host or cells: rat kidney medulla membranes
T1 sequence (Q00788 whole entry): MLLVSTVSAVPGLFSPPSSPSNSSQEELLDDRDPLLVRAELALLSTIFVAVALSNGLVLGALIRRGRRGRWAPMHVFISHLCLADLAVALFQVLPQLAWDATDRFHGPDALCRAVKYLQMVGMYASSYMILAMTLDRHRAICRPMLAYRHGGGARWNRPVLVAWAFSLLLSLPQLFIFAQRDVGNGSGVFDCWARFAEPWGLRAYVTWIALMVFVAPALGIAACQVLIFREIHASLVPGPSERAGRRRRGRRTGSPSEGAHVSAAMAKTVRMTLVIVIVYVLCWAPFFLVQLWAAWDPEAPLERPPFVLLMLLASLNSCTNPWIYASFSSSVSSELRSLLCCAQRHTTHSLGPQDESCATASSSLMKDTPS
Briefly: biochemical. In kind it is binding.

In test [2] the target is T2, Vasopressin V1 receptor subtype in Human Platelet Membranes (Homo sapiens, UniProt P37288).
T2 construct: Frozen platelet rich plasma (PRP), received from the Hudson Valley Blood Services, are thawed to room temperature; tissue Hudson Valley Blood Services; host or cells: human platelets (platelet rich plasma)
T2 sequence (P37288 whole entry): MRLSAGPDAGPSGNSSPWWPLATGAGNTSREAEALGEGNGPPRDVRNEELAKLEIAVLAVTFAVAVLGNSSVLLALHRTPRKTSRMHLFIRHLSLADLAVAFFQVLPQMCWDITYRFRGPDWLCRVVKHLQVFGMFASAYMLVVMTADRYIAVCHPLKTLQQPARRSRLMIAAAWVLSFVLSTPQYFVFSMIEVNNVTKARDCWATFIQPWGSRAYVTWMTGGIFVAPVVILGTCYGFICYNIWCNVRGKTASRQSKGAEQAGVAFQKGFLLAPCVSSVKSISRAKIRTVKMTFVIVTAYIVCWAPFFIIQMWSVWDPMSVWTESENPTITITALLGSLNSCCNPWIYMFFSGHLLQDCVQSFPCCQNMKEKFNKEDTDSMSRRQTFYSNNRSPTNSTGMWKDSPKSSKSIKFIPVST
Briefly: Binding to Vasopressin V1 receptor subtype in Human Platelet Membranes. On the procedure: Radioligand Binding Experiments with Human Platelet Membranes
Platelet Source: Hudson Valley Blood Services,
Westchester Medical Center, Valhalla, N.Y.
Platelet Membrane Preparation
Frozen platelet rich plasma (PRP), received from the Hudson Valley Blood Services, are thawed to room temperature. The tubes containing the PRP are centrifuged at 16,000×g for 10 min. at 4° C. and the supernatant fluid discarded. The platelets resuspended in an equal volume of 50.0 mM Tris.HCl, pH 7.5 containing 120 mM NaCl and 20.0 mM EDTA. The suspension is recentrifuged at 16,000×g for 10 min. This washing step is repeated one more time. The wash discarded and the lysed pellets homogenized in low ionic strength buffer of Tris.HCl, 5.0 mM, pH 7.5 containing 5.0 mM EDTA. The homogenate is centrifuged at 39,000×g for 10 min. The resulting pellet is resuspended in Tris.HCl buffer, 70.0 mM, pH 7.5 and recentrifuged at 39,000×g for 10 min. The final pellet is resuspended in 50.0 mM Tris.HCl buffer pH 7.4 containing 120 mM NaCl and 5.0 mM KCl to give 1.0-2.0 mg protein per ml of suspension.
Binding to Vasopressin V1 receptor subtype in Human Platelet Membranes
In wells of 96 well format microtiter plate, add 100 μl of 50.0 mM Tris.HCl buffer containing 0.2% BSA and a mixture of protease inhibitors (aprotinin, leupeptin etc.). Then add 20 μl of [^3 H]Ligand (Manning or Arg^8 Vasopressin), to give final concentrations ranging from 0.01 to 10.0 nM. Initiate the binding by adding 80.0 μl of platelet suspension (approx. 100 μg protein). Mix all reagents by pipetting the mixture up and down a few times. Non specific binding is measured in the presence of 1.0 μM of unlabeled ligand (Manning or Arg^8 Vasopressin). Let the mixture stand undisturbed at room temperature for ninety (90) min. Upon this time, rapidly filter off the incubate under vacuum suction over GF/B filters, using a Brandel® Harvester. Determine the radioactivity caught on the filter disks by the addition of liquid scintillant and counting in a liquid scintillator.

Test [3] has as its target T3, oxytocin receptors (Rattus norvegicus, UniProt P70536).
T3 sequence (P70536 1-388): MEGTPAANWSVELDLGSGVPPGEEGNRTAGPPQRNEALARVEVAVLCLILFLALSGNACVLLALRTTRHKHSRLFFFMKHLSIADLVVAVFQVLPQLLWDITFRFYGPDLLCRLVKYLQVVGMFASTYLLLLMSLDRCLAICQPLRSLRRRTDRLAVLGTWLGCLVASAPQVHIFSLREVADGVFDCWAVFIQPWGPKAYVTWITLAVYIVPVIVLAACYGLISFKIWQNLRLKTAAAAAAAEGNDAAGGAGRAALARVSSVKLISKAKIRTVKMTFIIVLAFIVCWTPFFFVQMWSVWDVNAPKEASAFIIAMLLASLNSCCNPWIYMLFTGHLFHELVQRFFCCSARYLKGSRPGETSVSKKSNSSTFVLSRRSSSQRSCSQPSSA
Briefly: Oxytocin Receptor Binding. The settings on record: for IC50: rat uterine membranes, [3H]oxytocin.
Procedure: Female Sprague-Dawley rats weighing approximately 200-250 g are injected intramuscularly (i.m.) with 0.3 mg/kg of body weight of diethylstilbestrol (DES). The rats are sacrificed 18 hours later under pentobarbital anesthesia. The uteri are dissected out, cleaned of fat and connective tissues and rinsed in 50 ml of normal saline. The tissue pooled from six rats is homogenized in 50 ml of 0.01 mM Tris.HCl, containing 0.5 mM dithiothreitol and 1.0 mM EDTA, adjusted to pH 7.4, using a polytron at setting 6 with three passes of 10 sec each. The homogenate is passed through two (2) layers of cheesecloth and the filtrate centrifuged at 1000×g for 10 min. The clear supernatant is removed and recentrifuged at 165,000×g for 30 min. The resulting pellet containing the oxytocin receptors is resuspended in 50.0 mM Tris.HCl containing 5.0 mM MgCl2 at pH 7.4, to give a protein concentration of 2.5 mg/ml of tissue suspension. This preparation is used in subsequent binding assays with [^3 H]Oxytocin.
Binding of 3,5-[^3 H]Oxytocin ([^3 H]OT) to its receptors is done in microtiter plates using [^3 H]OT, at various concentrations, in an assay buffer of 50.0 mM Tris.HCl, pH 7.4 and containing 5.0 mM MgCl2, and a mixture of protease inhibitors: BSA, 0.1 mg; aprotinin, 1.0 mg; 1,10-phenanthroline, 2.0 mg; trypsin, 10.0 mg; and PMSF, 0.3 mg per 100 ml of buffer solution. Non-specific binding is determined in the presence of 1.0 uM unlabeled OT. The binding reaction is terminated after 60 min., at 220° C., by rapid filtration through glass fiber filters using a Brandel® cell harvester (Bio-medical Research and Development Laboratories, Inc., Gaithersburg, Md.). Competition experiments are conducted at equilibrium using 1.0 nM [^3 H]OT and varying the concentration of the displacing agents. The concentrations of agent displacing 50% of [^3 H]OT at its sites (IC50) are calculated by a computer assisted LUNDON-2 program (LUNDON SOFTWARE INC., Ohio, USA).

The target of test [4] is T4, Human V2 Vasopressin Receptor (Homo sapiens, UniProt P30518).
T4 construct: expressed in transfected cells; host or cells: mouse fibroblast cell line LV-2
T4 sequence (P30518 whole entry): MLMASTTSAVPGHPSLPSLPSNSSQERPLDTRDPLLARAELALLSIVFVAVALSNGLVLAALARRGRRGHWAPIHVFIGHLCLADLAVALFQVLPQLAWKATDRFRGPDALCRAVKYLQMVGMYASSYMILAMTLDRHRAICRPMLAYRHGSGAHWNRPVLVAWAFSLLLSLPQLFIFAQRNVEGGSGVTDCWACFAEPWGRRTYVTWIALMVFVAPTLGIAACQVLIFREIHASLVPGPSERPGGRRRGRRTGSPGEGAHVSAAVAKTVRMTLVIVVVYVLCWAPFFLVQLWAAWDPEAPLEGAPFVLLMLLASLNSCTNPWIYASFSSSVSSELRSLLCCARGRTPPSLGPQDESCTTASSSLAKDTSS
Briefly: Binding to Membranes of Mouse Fibroblast Cell Line (LV-2) Transfected with the cDNA Expressing the Human V2 Vasopressin Receptor. On the procedure:
Binding to Membranes of Mouse Fibroblast Cell Line (LV-2) Transfected with the cDNA Expressing the Human V2 Vasopressin Receptor Membrane Preparation
Flasks of 175 ml capacity, containing attached cells grown to confluence, are cleared of culture medium by aspiration. The flasks containing the attached cells are rinsed with 2×5 ml of phosphate buffered saline (PBS) and the liquid aspirated off each time. Finally, 5 ml of an enzyme free dissociation Hank's based solution (Specialty Media, Inc., Lafayette, N.J.) is added and the flasks are left undisturbed for 2 min. The content of all flasks is poured into a centrifuge tube and the cells pelleted at 300×g for 15 min. The Hank's based solution is aspirated off and the cells homogenized with a polytron at setting #6 for 10 sec in 10.0 mM Tris.HCl buffer, pH 7.4 containing 0.25M sucrose and 1.0 mM EDTA. The homogenate is centrifuged at 1500×g for 10 min to remove ghost membranes. The supernatant fluid is centrifuged at 100,000×g for 60 min to pellet the receptor protein. Upon completion, the pellet is resuspended in a small volume of 50.0 mM Tris.HCl buffer, pH 7.4. The protein content is determined by the Lowry method and the receptor membranes are suspended in 50.0 mM Tris.HCl buffer containing 0.1 mM phenylmethylsulfonylfluoride (PMSF) and 0.2% bovine serum albumin (BSA) to give 2.5 mg receptor protein per ml of suspension.
For binding experiments, the following is added in μl volume to wells of a 96 well format of a microtiter plate: 100.0 μl of 100.0 mM Tris.HCl buffer containing 0.2% heat inactivated BSA, 10.0 mM MgCl2 and a mixture of protease inhibitors: leupeptin, 1.0 mg %; aprotinin, 1.0 mg %; 1,10-phenanthroline, 2.0 mg %; trypsin inhibitor, 10.0 mg % and 0.1 mM PMSF, 20.0 μl of [^3 H] Arginine^8, vasopressin (S.A. 75.0 Ci/mmole) at 0.8 nM and the reaction initiated by the addition of 80.0 μl of tissue membranes (200.0 μg tissue protein). The plates are left undisturbed on the bench top for 120 min to reach equilibrium. Non specific binding is assessed in the presence of 1.0 μm of unlabeled ligand, added in 20 μl volume. For test compounds, these are solubilized in 50% dimethylsulfoxide (DMSO) and added in 20.0 μl volume to a final incubation volume of 200 μl. Upon completion of binding, the content of each well is filtered off, using a Brandel® cell Harvester (Gaithersburg, Md.). The radioactivity trapped on the filter disk by the ligand-receptor complex is assessed by liquid scintillation counting in a Packard LS Counter, with an efficiency of 65% for tritium. The data are analyzed for IC50 values by the LUNDON-2 program for competition (LUNDON SOFTWARE, Ohio).

The target in test [5] is Rat Hepatic V1 Receptors (Rattus norvegicus, UniProt P30560). The test can be described thus: Binding Assay to Rat Hepatic V1 Receptors. On the procedure:
Binding Assay to Rat Hepatic V1 Receptors
Rat liver plasma membranes expressing the vasopressin V1 receptor subtypes are isolated by sucrose density gradient according to the method described by Lesko et al, (1973). These membranes are quickly suspended in 50.0 mM Tris.HCl buffer, pH 7.4, containing 0.2% bovine serum albumin (BSA) and 0.1 mM phenylmethylsulfonylfluoride (PMSF) and kept frozen at -70° C. until used in subsequent binding experiments. For binding experiments, the following is added to the wells of a ninety-six well format microtiter plate: 100 μl of 100.0 mM Tris.HCl buffer containing 10.0 mM MgCl2, 0.2% heat inactivated BSA and a mixture of protease inhibitors: leupeptin, 1.0 mg %; aprotinin, 1.0 mg %; 1,10-phenanthroline,2.0 mg %; trypsin inhibitor, 10.0 mg % and 0.1 mM PMSF, 20.0 μl of [phenylalanyl-3,4,5,-^3 H] vaso-pressin (S.A. 45.1 Ci/mmole) at 0.8 nM, and the reaction initiated by the addition of 80 μl of tissue membranes containing 20 μg of tissue protein. The plates are kept undisturbed on the bench top at room temperature for 120 min. to reach equilibrium. Non-specific samples are assayed in the presence of 0.1 μm of the unlabeled antagonist phenylalanylvasopressin, added in 20.0 μl volume. For test compounds, these are solubilized in 50% dimethylsulfoxide (DMSO) and added in 20.0 μl volume to a final incubation volume of 200 μl. Upon completion of binding, the content of each well is filtered off, using a Brandel® cell Harvester (Gaithersburg, Md.). The radioactivity trapped on the filter disk by the ligand-receptor complex is assessed by liquid scintillation counting in a Packard LS Counter, with an efficiency of 65% for tritium. The data are analyzed for IC50 values by the LUNDON-2 program for competition (LUNDON SOFTWARE, Ohio).

For test [6], the system named is Endogenous Arginine Vasopressin Antidiuretic (V2) Response in Conscious Rats. The test can be described thus: Antagonism of Endogenous Arginine Vasopressin Antidiuretic (V2) Response in Conscious Rats (urine volume). The class given is in vivo, rat (Sprague-Dawley). The settings on record: 10 mg/kg rat p.o.; 4 hour collection. From the text:
Effects on the Antagonism of Endogenous Arginine Vasopressin Antidiuretic (V2) Response in Conscious Rats with Free Access to Water Drinking Before but not During the Experiment:
Male or female normotensive Sprague-Dawley rats (Charles River Laboratories, Inc., Kingston, N.Y.) of 400-450 g body weight were supplied with Laboratory Rodent Feed #5001 (PMI Feeds, Inc., Richmond, Id.) and water ad libitum. On the day of test, rats were placed individually into metabolic cages equipped with stainless steel screens (to separate the feces from the urine) and funnels for collection of urine. Vehicle or reference agent was given at various oral doses. During the test, rats were not provided with water or food. Urine was collected for four hours after dosing of the test compound. At the end of four hours, urine volume was measured. Urinary osmolality was determined using a Fiske One-Ten Osmometer (Fiske Associates, Norwood, Mass. 02062) or an Advanced CRYOMATIC Osmometer, Model 3C2 (Advanced Instruments, Norwood, Mass.). Determinations of Na^+, K^+ and Cl^- ion were carried out using ion specific electrodes in a Beckman SYNCHRON EL-ISE Electrolyte System analyzer. In the following results, increased urine volume and decreased osmolality relative to AVP-control indicates activity.

Where [7] appears, read: LV-2 cells transfected with human V2 receptor cDNA, Table 5, read-out: Vasopressin Binding Human V2 Receptor.

Chain of Rat Hepatic V1 Receptors (P30560 whole entry): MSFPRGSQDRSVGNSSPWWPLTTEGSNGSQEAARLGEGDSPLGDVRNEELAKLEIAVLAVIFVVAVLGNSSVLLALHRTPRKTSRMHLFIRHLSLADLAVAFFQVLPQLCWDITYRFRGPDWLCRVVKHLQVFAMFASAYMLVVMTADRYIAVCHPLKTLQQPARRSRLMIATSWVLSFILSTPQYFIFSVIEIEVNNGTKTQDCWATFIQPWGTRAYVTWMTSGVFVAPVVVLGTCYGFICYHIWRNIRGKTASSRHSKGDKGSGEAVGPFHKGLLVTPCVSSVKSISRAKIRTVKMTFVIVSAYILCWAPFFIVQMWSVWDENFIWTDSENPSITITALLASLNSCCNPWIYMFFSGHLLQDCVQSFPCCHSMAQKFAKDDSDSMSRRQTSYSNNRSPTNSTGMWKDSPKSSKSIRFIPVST

`Cc1c(F)cccc1C(=O)Nc1ccc(C(=O)N2Cc3cccn3Cc3ccccc32)cn1` [Example 4]: the figures for the IC50 in test [1], in test [2] (* V1 receptor subtype in human platelet) and in test [3] were 1 nM, 44 nM and 670 nM, respectively. In addition, the inhibition at 10 µM in test [3] turned out to be 100%.

As to `COc1cc(C(=O)Nc2ccc(C(=O)N3Cc4cccn4Cc4ccccc43)cn2)cc(OC)c1OC` [Example 5], the inhibition at 10 µM stood at 51% in test [2] (1.5 h, * human platelet V1); 47% in test [4] (** human V2, LV-2 cell membranes, at 10 μM); 93% in test [3].

As to `O=C(Nc1ccc(C(=O)N2Cc3cccn3Cc3ccccc32)cn1)c1ccc(F)cc1Cl` [Example 9], the IC50 was 6 nM in test [5]; 1.1 nM in test [1]; 0.9 nM in test [4] (** LV-2 cells transfected with human V2 receptor cDNA, read-out: V2 IC50 (**human V2 receptor)); 170 nM in test [3]. This compound also showed an inhibition at 2.5 µM in test [3] (dose 2.5 μM) of 96%.

Turning to `COc1cc(C(=O)Nc2ccc(C(=O)N3Cc4ccc(CN(C)C)n4Cc4ccccc43)cn2)cc(OC)c1OC` [Example 133, N-[5-[[3-[(Dimethylamino)methyl]-[5H-pyrrolo[2,1-c][1,4]benzodiazepin-10(11H)]yl]carbonyl]-2-pyridinyl]-3,4,5-trimethoxybenzamide], the inhibition at 10 µM came to 21% in test [1] (at 10 μM); 11% in test [2] (1.5 h, * human platelet V1); 59% in test [3].

Consider `CN(C)CCCNc1ncccc1C(=O)Nc1ccc(C(=O)N2Cc3cccn3Cc3ccccc32)cc1` [Example 335, N-[4-(5H-pyrrolo[2,1-c][1,4]benzodiazepin-10(11H)-ylcarbonyl)phenyl]-2-[(3-dimethylaminopropyl)amino]pyridine-3-carboxamide], for which the inhibition at 1 µM was 60% in test [1] (at 1 μM) and 100% in test [2] (1.5 h, * human platelet V1, at 1 μM).

In the case of `CN(C)Cc1ccc2n1Cc1ccccc1N(C(=O)c1ccc(NC(=O)c3ccccc3-c3ccccc3)cc1O)C2` [Example 372], the IC50 in test [4] (setting [7]) turned out to be 15.9 nM. In addition, the “Urine Volume” value in test [6] came to 30.3 ml/4 hrs.

As to `O=C(Nc1ccc(C(=O)N2Cc3cccn3Cc3ccccc32)c(Cl)c1)c1ccccc1-n1cccc1` [Example 377, N-[3-Chloro-4-(5H,11H-pyrrolo{2,1-c][1,4]benzodiazepine-10-carbonyl)-phenyl]-2-pyrrol-1-yl-benzamide], in test [4] (setting [7]), the IC50 worked out at 4.5 nM. Moreover, the “Urine Volume” value in test [6] was found to be 13.2 ml/4 hrs.

On to `O=C(Nc1ccc(C(=O)N2Cc3cccn3Cc3ccccc32)c(Cl)c1)c1cccc2cccnc12` [Example 378, Ouinoline-8-carboxylic acid [4-(5H,11H-pyrrolo[2,1-c][1,4]benzodiazepine-10-carbonyl)-3-phenyl]-amide], for which the IC50 in test [4] (setting [7]) turned out to be 69.1 nM. Further, the “Urine Volume” value in test [6] is given as 11.7 ml/4 hrs.

`CN(C)Cc1ccc2n1Cc1ccccc1N(C(=O)c1ccc(NC(=O)C3=C(c4ccccc4)CCC3)cc1Cl)C2` [Example 379, [3-Chloro-4-(3-dimethylaminomethyl-5H,11H-pyrrolo[2,1-c][1,4]benzodiazepine-10-carbonyl)-phenyl]-2-phenylcyclopent-1-enecarboxylic acid amide]: the IC50 in test [4] (setting [7]) amounted to 12.3 nM. The “Urine Volume” value in test [6] was determined as 18.9 ml/4 hrs.
